Reference: PMC9046208, “Foldamers reveal and validate therapeutic targets associated with toxic α-synuclein self-assembly” (Nature Communications, 2022)
Entries after “also recorded” stand apart in the source; their conditions may differ.

Legend:
αS oligomers = molecular target: T1, αS oligomers (Homo sapiens, UniProt P37840); experiment: Gel shift assay of αS supernatant (oligomers); assay type: biochemical; conditions: 70 µM αS, 0.1, 0.2, 0.5 mol eq. ligand, 7 days
T1 construct: made in house; host or cells: Escherichia coli BL21(DE3), periplasm
Procedure: Supplementary Fig. 8. Gel-shift images of αS (70 µM) incubated in the absence (lane 2) and presence of SK-129 (a) and EGCG (b) at sub-stoichiometric ratios (0.1, 0.2, 0.5 mol eq.) for 7 days at 370C with constant shaking. The solutions of αS in the absence and presence of ligands were centrifuged and the supernatant was used for the gel shift assay. The arrows indicate the formation of various αS structures. The gel shift assay of the supernatant of the αS aggregated […]
fibers. Most of the αS was found in the supernatant as a mo nomer and a dimer in the presence of […]
their formation. The gel experiments were conducted at least two times to confirm the reproducibility of the data.
(1 picture or pasted object on this page, not shown here)

αS1 = molecular target: T2, αS1 (Homo sapiens, UniProt P37840, DEL6-12); experiment: Fluorescence polarization titration, SK-129F with αS1; assay type: binding; conditions: FP
T2 construct: made in house; host or cells: Escherichia coli BL21(DE3), periplasm
Procedure: (§1) All Fluorescence Polarization (FP) experiments were conducted on a Varian Cary Eclipse fluorometer (Agilent, Santa Clara, CA) equipped with a polarizer. The stock solutions of αS, 1 mM or 100 μM in 1x PBS buffer, were serially added into a solution of 10 μM SK-129F (300 μL in 1x PBS buffer) while stirring in a quartz cuvette (Fireflysci, Staten Island, NY). All FP measurements were conducted in triplicates in 20 mM Tris, 100 mM NaCl, pH 7.2 at 20 °C. The excitation and emissions wavelengths were set at 490 nm and 520 nm, respectively. Each titration was equilibrated for five min before measurements were taken for the next addition of αS solution. The addition of αS solution was continuous until no more change in the FP signal was observed. Similar conditions were used for the titration of various αS mutants and Aβ42 peptide against SK-129F. A stock solution of Aβ42 (1 mM or 100 μM in 1x PBS buffer on ice) was sequentially added to a solution of 10 μM SK-129F (300 μL in 1x PBS buffer) until no more change in the FP signal was observed. The polarization of each point was calculated using Eq. 1:1 FP=I∥−I⊥/I∥+I⊥ Where I∥ is fluorescence intensity parallel to the excitation plane and I⊥ is fluorescence intensity perpendicular to the excitation plane. […]

αS2 = molecular target: T3, αS2 (Homo sapiens, UniProt P37840, DEL15-23); experiment: Fluorescence polarization titration, SK-129F with αS2; assay type: binding; conditions: FP
T3 construct: made in house
Procedure: as §1

αS = molecular target: T4, αS (Homo sapiens, UniProt P37840); experiment: Fluorescence polarization titration, SK-129F with WT αS; assay type: binding
T4 construct: made in house; host or cells: Escherichia coli BL21(DE3), periplasm
Procedure: All Fluorescence Polarization (FP) experiments were conducted on a Varian Cary Eclipse fluorometer (Agilent, Santa Clara, CA) equipped with a polarizer. The stock solutions of αS, 1 mM or 100 μM in 1x PBS buffer, were serially added into a solution of 10 μM SK-129F (300 μL in 1x PBS buffer) while stirring in a quartz cuvette (Fireflysci, Staten Island, NY). All FP measurements were conducted in triplicates in 20 mM Tris, 100 mM NaCl, pH 7.2 at 20 °C. The excitation and emissions wavelengths were set at 490 nm and 520 nm, respectively. Each titration was equilibrated for five min before measurements were taken for the next addition of αS solution. The addition of αS solution was continuous until no more change in the FP signal was observed. Similar conditions were used for the titration of various αS mutants and Aβ42 peptide against SK-129F. A stock solution of Aβ42 (1 mM or 100 μM in 1x PBS buffer on ice) was sequentially added to a solution of 10 μM SK-129F (300 μL in 1x PBS buffer) until no more change in the FP signal was observed. The polarization of each point was calculated using Eq. 1:1 FP=I∥−I⊥/I∥+I⊥ Where I∥ is fluorescence intensity parallel to the excitation plane and I⊥ is fluorescence intensity perpendicular to the excitation plane. The plot between the relative change in the FP signal against the concentration of the protein (αS/ Aβ42) was fit using one site binding model and Kd between SK-129F and αS (αS mutants/Aβ42) was extracted from the fit. For displacement titration, a 10 μM SK-129F solution was saturated with 10 mole equivalents of αS (300 μL in 1x PBS buffer). To this solution, a stock solution of SK-129 (1 mM or 10 mM) was serially added to displace SK-129F from the αS-SK-129F complex. The solution of SK-129 was continuously added until no more change in the FP signal was observed. A plot between the relative change in the FP signal against the concentration of SK-129 was fit using a one-site competitive binding model and Kd between SK-129 and αS was extracted from the fit.

αS3 = molecular target: T5, αS3 (Homo sapiens, UniProt P37840, DEL36-45); experiment: Fluorescence polarization titration, SK-129F with αS3; assay type: binding; conditions: FP
T5 construct: Synuclein Residues (1-140); made in house
Procedure: as §1

αS4 = experiment: Fluorescence polarization titration, SK-129F with αS4; assay type: binding; conditions: FP
Procedure: as §1

binding affinity weaker than WT αS (αS1)	binding affinity weaker than WT αS (αS2)	Kd (αS; FP fit, WT αS, trial 1)	Kd (αS; FP fit, WT αS, trial 2)	Kd (αS; FP fit, WT αS, trial 3)	Kd (αS; FP titration, 10 μM SK-129F with αS, mean ± s.d., n = 3)	binding affinity weaker than WT αS (αS3)	binding affinity weaker than WT αS (αS4)	Structure (SMILES)	αS species in gel shift assay (αS oligomers)
								O=C(O[C@@H]1Cc2c(O)cc(O)cc2O[C@@H]1c1cc(O)c(O)c(O)c1)c1cc(O)c(O)c(O)c1 [EGCG, Epigallocatechin Gallate]	higher-order toxic oligomers; also recorded: higher-order oligomers were observed
3–4 fold	3–4 fold	864 nM	791 nM	758 nM	810 ± 90 nM	~ 8 fold	> 10 fold	COC(=O)c1cc(OCC(=O)O)c2cccc(NC(=O)c3cc(OC(C)C)c4cccc(NC(=O)c5cc(OCC(=O)O)c6cccc(NC(=O)c7cc(OC(C)C)c8cccc(NC(=S)NCC(=O)Nc9ccc(-c%10c%11ccc(=O)cc-%11oc%11cc(O)ccc%10%11)c(C(=O)O)c9)c8n7)c6n5)c4n3)c2n1 [SK-129F]	
